Laboratory results as given in patent US11111238B2, “Coumarin derivatives, processes for their preparation and uses thereof for the treatment of cancer” (Lead Discovery Center GmbH, priority 2017, dated 2021).

Target: mitochondrial RNA-polymerase (POLRMT) (Mus musculus, UniProt Q8BKF1)
Assay: Homogeneous TR-FRET assay for mitochondrial transcription activity
Type: biochemical
Details: homogeneous TR-FRET assay according to Example 4; activity class
From the text: The TR-FRET assay was basically conducted as described in WO2016/193,231A1, especially as described in example 1 (hereby incorporated by reference). With respect to the background of the mitochondrial transcription it is referred to Falkenberg et al. (2002) and Posse et al. (Posse et al., 2015). The method monitors the activity of mitochondrial RNA-polymerase via detection of the formation of its product, a 407 bp long RNA sequence. Detection of the product is facilitated by hybridization of two DNA-oligonucleotide probes to specific and adjacent sequences within the RNA product sequence. Upon annealing of the probes, two fluorophores that are coupled directly to an acceptor nucleotide probe (ATT0647, 5′) or introduced via a coupled streptavidin interacting with a biotinylated donor nucleotide probe on the other side (Europium cryptate, 3′) are brought into sufficient proximity to serve as a fluorescence-donor-acceptor pair as generally described in Walters and Namchuk (2003). Thus, a FRET signal at 665 nm is generated upon excitation at 340 nm.
Briefly, the protocol described here was applied for screening and activity determination in a low-volume 384-well microtiter plate with non-binding surface. For high-throughput application in the 1536-well microtiter plate format, volumes of the reagent mixes were adjusted, maintaining the volumetric ratio. Proteins POLRMT (NM_172551.3), TFAM (NM_009360.4) and TFB2 M (NM_008249.4) were diluted from their stocks to working concentrations of 150 nM, 1.8 μM and 330 nM respectively, in a dilution buffer containing 100 mM Tris-HCl pH 8.0, 200 mM NaCl, 10% (v/v) glycerole, 2 mM glutathione (GSH), 0.5 mM EDTA and 0.1 mg/mL BSA. Protein dilutions and template DNA, comprising a pUC18 plasmid encoding the mitochondrial light strand promoter, restriction linearized proximal to the promoter 3′-end (pUC-LSP), were mixed at the twofold final assay-concentration in a reaction buffer, containing 10 mM Tris-HCl pH 7.5, 10 mM MgCl2, 40 mM NaCl, 2 mM GSH, 0.01% (w/v) Tween-20 and 0.1 mg/mL BSA.
5 μL of this mix were dispensed, depending on the chosen microtiter plate format, using multi-channel pipettes or a Multidrop® dispenser (Thermo Fisher Scientific, Waltham Mass.) into the wells of a microtiter plate and incubated at room temperature (RT) for 10 min. Chemical compounds under scrutiny in the assay were applied using contact-free acoustic droplet-dispensing (Echo520® Labcyte Inc., Sunnyvale Calif.) from 10 mM compound stocks in 100% DMSO, to a final concentration of 10 μM or in serial dilution series of the required concentration range. Equal amounts of DMSO without any compound were added to positive control samples, followed by an incubation step at RT for 10 min.
The enzymatic reaction was started by the addition of 5 μL of a mix of […] in reaction buffer to a final concentration of 500 μM each. No nucleotide mix was added to negative control samples. The content of the wells was mixed using a VarioTeleshaker™ (Thermo Fisher Scientific, Waltham Mass.) at 1,500 rpm for 45 sec after which the microtiter plate was centrifuged at 500×g for 1 min. The samples were incubated for 2 h at RT with humidity control to avoid evaporation. The detection reagents were prepared in a buffer that was composed, such that the enzymatic reaction was terminated due to chelating of Mg-ions and increased ionic strength, containing 50 mM Tris-HCl pH 7.5, 700 mM NaCl, 20 mM EDTA, and 0.01% (w/v) Tween-20. Importantly Eu-cryptate-coupled streptavidin had to be pre-incubated with a 100-fold molar excess of a random sequence oligonucleotide for 10 min at RT in the dark to block unspecific binding of single stranded RNA to the protein. Subsequently, the blocked streptavidin(—Eu) was mixed with the DNA-probes on ice and kept away from light until use. […]

Sequence of mitochondrial RNA-polymerase (POLRMT) (Q8BKF1 42-1207): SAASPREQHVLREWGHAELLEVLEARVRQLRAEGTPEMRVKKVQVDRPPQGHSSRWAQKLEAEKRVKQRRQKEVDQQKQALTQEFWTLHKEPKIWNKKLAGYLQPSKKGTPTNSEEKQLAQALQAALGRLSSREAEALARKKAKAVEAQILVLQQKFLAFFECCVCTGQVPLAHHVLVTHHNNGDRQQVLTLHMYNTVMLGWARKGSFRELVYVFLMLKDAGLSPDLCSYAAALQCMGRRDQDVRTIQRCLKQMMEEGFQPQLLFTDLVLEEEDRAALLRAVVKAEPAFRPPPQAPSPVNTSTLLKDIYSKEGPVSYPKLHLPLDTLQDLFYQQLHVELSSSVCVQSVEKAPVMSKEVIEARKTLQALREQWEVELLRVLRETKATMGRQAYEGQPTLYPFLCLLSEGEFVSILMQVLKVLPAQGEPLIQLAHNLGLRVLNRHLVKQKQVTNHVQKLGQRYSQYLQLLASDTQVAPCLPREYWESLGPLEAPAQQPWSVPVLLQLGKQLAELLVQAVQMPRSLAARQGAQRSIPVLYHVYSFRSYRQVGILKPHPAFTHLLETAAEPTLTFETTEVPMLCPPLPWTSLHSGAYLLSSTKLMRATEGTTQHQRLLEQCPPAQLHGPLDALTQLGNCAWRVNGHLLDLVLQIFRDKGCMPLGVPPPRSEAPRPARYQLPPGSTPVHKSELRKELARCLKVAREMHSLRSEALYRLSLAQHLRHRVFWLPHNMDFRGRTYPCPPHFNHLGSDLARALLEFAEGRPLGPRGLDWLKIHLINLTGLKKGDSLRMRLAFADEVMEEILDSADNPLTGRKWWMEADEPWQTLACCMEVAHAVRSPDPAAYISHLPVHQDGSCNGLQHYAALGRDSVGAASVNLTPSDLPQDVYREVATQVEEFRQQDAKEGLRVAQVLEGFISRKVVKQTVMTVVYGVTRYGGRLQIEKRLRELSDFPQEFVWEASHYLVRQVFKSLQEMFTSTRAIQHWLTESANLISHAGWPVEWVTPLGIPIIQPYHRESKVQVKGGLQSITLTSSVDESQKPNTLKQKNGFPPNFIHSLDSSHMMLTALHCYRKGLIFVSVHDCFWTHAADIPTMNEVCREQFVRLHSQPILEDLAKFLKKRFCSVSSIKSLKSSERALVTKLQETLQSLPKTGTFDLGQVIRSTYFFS

| IC50 [nM] | SMILES |
| --- | --- |
| 100 to 1000 | CC(Oc1ccc2c(-c3ccccc3Cl)cc(=O)oc2c1)C(=O)O (centres unmarked) [Compound 96, 2-[4-(2-chlorophenyl)-2-oxo-chromen-7-yl]oxypropanoic acid] |
| 100 to 1000 | Cc1ccccc1-c1cc(=O)oc2cc(OC(C)C(=O)O)ccc12 (centres unmarked) [Compound 97, 2-[4-(o-tolyl)-2-oxo-chromen-7-yl]oxypropanoic acid] |
| 100 to 1000 | CC(Oc1ccc2c(-c3ccc(F)cc3Cl)cc(=O)oc2c1)C(=O)O (centres unmarked) [Compound 99, 2-((4-(2-chloro-4-fluorophenyl)-2-oxo-2H-chromen-7-yl)oxy)propanoic acid] |
| < 20 | COC(=O)C[C@@H]1CCCN(C(=O)[C@@H](C)Oc2ccc3c(-c4ccccc4Cl)cc(=O)oc3c2)C1 [Compound 100, methyl 2-[(3S)-1-[(2R)-2-[4-(2-chlorophenyl)-2-oxo-chromen-7-yl]oxypropanoyl]-3-piperidyl]acetate] |
| < 20 | COC(=O)C[C@H]1CCCN(C(=O)[C@@H](C)Oc2ccc3c(-c4ccccc4Cl)cc(=O)oc3c2)C1 [Compound 101, methyl 2-[(3R)-1-[(2R)-2-[4-(2-chlorophenyl)-2-oxo-chromen-7-yl]oxypropanoyl]-3-piperidyl]acetate] |
| < 20 | C[C@@H](Oc1ccc2c(-c3ccccc3Cl)cc(=O)oc2c1)C(=O)N1CCC[C@@H](CC(=O)O)C1 [Compound 102, 2-[(3S)-1-[(2R)-2-[4-(2-chlorophenyl)-2-oxo-chromen-7-yl]oxypropanoyl]-3-piperidyl]acetic acid] |
| < 20 | C[C@@H](Oc1ccc2c(-c3ccccc3Cl)cc(=O)oc2c1)C(=O)N1CCC[C@H](CC(=O)O)C1 [Compound 103, 2-[(3R)-1-[(2R)-2-[4-(2-chlorophenyl)-2-oxo-chromen-7-yl]oxypropanoyl]-3-piperidyl]acetic acid] |
| 20 to 100 | CCOC(=O)[C@H]1CCCN(C(=O)C(CC)Oc2ccc3c(-c4ccccc4Cl)cc(=O)oc3c2)C1 (stereo partly drawn) [Compound 109, ethyl (3S)-1-[2-[4-(2-chlorophenyl)-2-oxo-chromen-7-yl]oxybutanoyl]piperidine-3-carboxylate] |
| 100 to 1000 | CC(C)(Oc1ccc2c(-c3ccccc3Cl)cc(=O)oc2c1)C(=O)O [Compound 112, 2-[4-(2-chlorophenyl)-2-oxo-chromen-7-yl]oxy-2-methyl-propanoic acid] |
| 100 to 1000 | CCOC(=O)C(C)(C)Oc1ccc2c(-c3ccccc3Cl)cc(=O)oc2c1 [Compound 113, ethyl 2-[4-(2-chlorophenyl)-2-oxo-chromen-7-yl]oxy-2-methyl-propanoate] |
| < 20 | COC(=O)C1CCN(C(=O)[C@@H](C)Oc2ccc3c(-c4ccc(F)cc4Cl)cc(=O)oc3c2)CC1 [Compound 129, methyl 1-[(2R)-2-[4-(2-chloro-4-fluoro-phenyl)-2-oxo-chromen-7-yl]oxypropanoyl]piperidine-4-carboxylate] |
| < 20 | C[C@@H](Oc1ccc2c(-c3ccc(F)cc3Cl)cc(=O)oc2c1)C(=O)Nc1ccc(CO)cc1 [Compound 130, (2R)-2-[4-(2-chloro-4-fluoro-phenyl)-2-oxo-chromen-7-yl]oxy-N-[4-(hydroxymethyl)phenyl]propanamide] |
| 20 to 100 | C[C@@H](Oc1ccc2c(-c3ccc(F)cc3Cl)cc(=O)oc2c1)C(=O)N1CCC(C(=O)O)CC1 [Compound 131, 1-[(2R)-2-[4-(2-chloro-4-fluoro-phenyl)-2-oxo-chromen-7-yl]oxypropanoyl]piperidine-4-carboxylic acid] |
| < 20 | C[C@@H](Oc1ccc2c(-c3ccc(F)cc3Cl)cc(=O)oc2c1)C(=O)N1CCC[C@H](C(N)=O)C1 [Compound 132, (3S)-1-[(2R)-2-[4-(2-chloro-4-fluoro-phenyl)-2-oxo-chromen-7-yl]oxypropanoyl]piperidine-3-carboxamide] |
| < 20 | C[C@@H](Oc1ccc2c(-c3ccc(F)cc3Cl)cc(=O)oc2c1)C(=O)N1CCC[C@H](CC(N)=O)C1 [Compound 133, 2-[(3R)-1-[(2R)-2-[4-(2-chloro-4-fluoro-phenyl)-2-oxo-chromen-7-yl]oxypropanoyl]-3-piperidyl]acetamide] |
| < 20 | CCc1ccccc1-c1cc(=O)oc2cc(O[C@H](C)C(=O)N3CCC[C@H](C(=O)O)C3)ccc12 [Compound 134, (3S)-1-[(2R)-2-[4-(2-ethylphenyl)-2-oxo-chromen-7-yl]oxypropanoyl]piperidine-3-carboxylic acid] |
| 100 to 1000 | COC(=O)[C@@H]1CN(C(=O)[C@@H](C)Oc2ccc3c(-c4ccc(F)cc4Cl)cc(=O)oc3c2)CCN1 [Compound 135, methyl (2S)-4-[(2R)-2-[4-(2-chloro-4-fluoro-phenyl)-2-oxo-chromen-7-yl]oxypropanoyl]piperazine-2-carboxylate] |
| 20 to 100 | C[C@@H](Oc1ccc2c(-c3ccc(F)cc3Cl)cc(=O)oc2c1)C(=O)N1CCN[C@H](C(=O)O)C1 [Compound 138, (2S)-4-[(2R)-2-[4-(2-chloro-4-fluoro-phenyl)-2-oxo-chromen-7-yl]oxypropanoyl]piperazine-2-carboxylic acid] |
| 100 to 1000 | COCCc1ccc(NC(=O)[C@@H](C)Oc2ccc3c(-c4ccc(F)cc4Cl)cc(=O)oc3c2)cc1 [Compound 140, (2R)-2-[4-(2-chloro-4-fluoro-phenyl)-2-oxo-chromen-7-yl]oxy-N-[4-(2-methoxyethyl)phenyl]propanamide] |
| 20 to 100 | COC(=O)C[C@H]1CCN(C(=O)[C@@H](C)Oc2ccc3c(-c4ccc(F)cc4Cl)cc(=O)oc3c2)C1 [Compound 142, methyl 2-[(3R)-1-[(2R)-2-[4-(2-chloro-4-fluoro-phenyl)-2-oxo-chromen-7-yl]oxypropanoyl]pyrrolidin-3-yl]acetate] |
| 100 to 1000 | COC(=O)c1cncc(NC(=O)[C@@H](C)Oc2ccc3c(-c4ccc(F)cc4Cl)cc(=O)oc3c2)c1 [Compound 143, methyl 5-[[(2R)-2-[4-(2-chloro-4-fluoro-phenyl)-2-oxo-chromen-7-yl]oxypropanoyl]amino]pyridine-3-carboxylate] |
| 20 to 100 | COC(=O)C[C@@H]1CCN(C(=O)[C@@H](C)Oc2ccc3c(-c4ccc(F)cc4Cl)cc(=O)oc3c2)C1 [Compound 144, methyl 2-[(3S)-1-[(2R)-2-[4-(2-chloro-4-fluoro-phenyl)-2-oxo-chromen-7-yl]oxypropanoyl]pyrrolidin-3-yl]acetate] |
| 100 to 1000 | COC(=O)c1ccnc(NC(=O)[C@@H](C)Oc2ccc3c(-c4ccc(F)cc4Cl)cc(=O)oc3c2)c1 [Compound 146, methyl 2-[[(2R)-2-[4-(2-chloro-4-fluoro-phenyl)-2-oxo-chromen-7-yl]oxypropanoyl]amino]pyridine-4-carboxylate] |
| < 20 | C[C@@H](Oc1ccc2c(-c3ccc(F)cc3Cl)cc(=O)oc2c1)C(=O)Nc1cncc(C(=O)O)c1 [Compound 148, 5-[[(2R)-2-[4-(2-chloro-4-fluoro-phenyl)-2-oxo-chromen-7-yl]oxypropanoyl]amino]pyridine-3-carboxylic acid] |
| 20 to 100 | C[C@@H](Oc1ccc2c(-c3ccc(F)cc3Cl)cc(=O)oc2c1)C(=O)N1CCN[C@@H](C(=O)O)C1 [Compound 150, (2R)-4-[(2R)-2-[4-(2-chloro-4-fluoro-phenyl)-2-oxo-chromen-7-yl]oxypropanoyl]piperazine-2-carboxylic acid] |

| SMILES | IC50 [nM] |
| --- | --- |
| C[C@@H](Oc1ccc2c(-c3ccc(F)cc3Cl)cc(=O)oc2c1)C(=O)N1CCC[C@@H](C(=O)O)C1 [Compound 108, (3R)-1-[(2R)-2-[4-(2-chloro-4-fluoro-phenyl)-2-oxo-chromen-7-yl]oxypropanoyl]piperidine-3-carboxylic acid] | < 20 |
